The text below walks through data of patent US12162867B2, “Inhibitors of RNA helicase DHX9 and uses thereof” (ACCENT THERAPEUTICS, INC., priority 2022, dated 2024).

SMILES strings stand for the structures. pEC50: −log10 of the molar value.

One experiment deals with circBRIP1 in HCT116 cells. Put plainly: DHX9 circBRIP1 cellular target engagement SYBR Green assay (qPCR). Format: cell-based. To be noted: Homo sapiens, HCT-116, circBRIP1, HCT116 cells; SyBr assay (marked ^+); read-out: DHX9 Cellular Target Engagement EC50.
On to `COc1cccc2sc(C(=O)Nc3cc(Cl)cc(NS(C)(=O)=O)c3)cc12` [Example 321], for which the pEC50 – broadly, −log10 of the EC50, conventionally taken in molar units – was 6.62.
Still for that read-out and setting: the same measure for `CS(=O)(=O)Nc1cc(Cl)cc(NC(=O)c2cnn(-c3ncccc3OCc3cnco3)c2)c1` [Example 66]: 5.31.
Still for that read-out and setting: the same measure for `CS(=O)(=O)Nc1cc(Cl)cc(NC(=O)c2cnn(-c3ccc(N4CCOCC4=O)cn3)c2)c1` [Example 180]: 5.92; for `CS(=O)(=O)Nc1cc(Cl)cc(NC(=O)c2cnn(-c3cc(N4CCOCC4)ccn3)c2)c1` [Example 91]: 6.42; for `CS(=O)(=O)Nc1cc(Br)cc(NC(=O)c2ccc3c(c2)[nH]c(=O)n3Cc2ccccc2)c1` [Example 99, 1-benzyl-N-(3-bromo-5-(methylsulfonamido)phenyl)-2-oxo-2,3-dihydro-1H-benzo[d]imidazole-5-carboxamide]: less than 5.00.
On the same count and under the same terms, the same measure for `CS(=O)(=O)Nc1cc(Cl)cc(NC(=O)c2coc(-c3ccccc3)c2)c1` [Example 125]: 4.79; for `CS(=O)(=O)Nc1cc(Cl)cc(NC(=O)c2cc3cc(F)ccc3s2)c1` [Example 295]: less than 5.00.
Take `Cn1nc(-c2ccccn2)cc1C(=O)Nc1cc(Cl)cc(NS(C)(=O)=O)c1` [Example 141]: the pEC50 was less than 5.00.
The same measure, in the same setting: the same measure for `CS(=O)(=O)Nc1cc(Cl)cc(NC(=O)c2cnn(-c3ncccc3OCc3ccn[nH]3)c2)c1` [Example 253]: 5.03; for `CC(C)(C)OC(=O)N1CC2(CC(n3cc(C(=O)Nc4cc(Cl)cc(NS(C)(=O)=O)c4)cn3)C2)C1` [Example 144, tert-butyl 6-(4-((3-chloro-5-(methylsulfonamido)phenyl)carbamoyl)-1H-pyrazol-1-yl)-2-azaspiro[3.3]heptane-2-carboxylate]: 5.23.
Turning to `CS(=O)(=O)Nc1cc(Cl)cc(NC(=O)c2cnn(-c3ncc(N4CCOCC4)cc3OCc3cccnc3)c2)c1` [Example 194], the pEC50 is 5.57.
`CN(C)C(=O)N1CCN(c2ccc(-n3cc(C(=O)Nc4cc(Cl)cc(NS(C)(=O)=O)c4)cn3)nc2)CC1` [Example 89]: the pEC50 was 6.18.
Still for that read-out and setting: next, `CCn1cc(C(=O)Nc2cc(Cl)cc(NS(C)(=O)=O)c2)cc1-c1ccc(N2CCOCC2)cn1` [Example 274]: 7.01; `CS(=O)(=O)Nc1cc(Cl)cc(NC(=O)c2cnn([C@H]3CC[C@H](O)CC3)c2)c1` (single isomer, unassigned) [Example 154]: less than 5.00; `CS(=O)(=O)Nc1cc(Br)cc(NC(=O)c2cnn(-c3ccc(C#N)cn3)c2)c1` [Example 41]: 5.36.
Still for that read-out and setting: next, `CS(=O)(=O)Nc1cc(Cl)cc(NC(=O)c2cnn(-c3ncc(F)cc3OCc3cccc(C#N)c3)c2)c1` [Example 203]: 6.47; `Cc1cccnc1-c1nc(C(=O)Nc2cc(Cl)cc(NS(C)(=O)=O)c2)cn1C` [Example 156]: less than 5.00; `COc1ccc2cc(C(=O)Nc3cc(Cl)cc(NS(C)(=O)=O)c3)sc2c1` [Example 327]: 5.45.
In the case of `CS(=O)(=O)Nc1cc(Cl)cc(NC(=O)c2cnn(C3CC4(C3)CN(CC(F)(F)F)C4)c2)c1` [Example 312], the pEC50 is 5.00.
On the same count and under the same terms, next, `Cc1cc(C(=O)Nc2cc(Cl)cc(NS(C)(=O)=O)c2)cn1-c1ccc(N2CCOC(C)(C)C2)cn1` [Example 272]: 7.51; `Cn1nc(C(=O)Nc2cc(Cl)cc(NS(C)(=O)=O)c2)cc1-c1ccccn1` [Example 140]: less than 5.00.
On to `CS(=O)(=O)Nc1cc(Cl)cc(NC(=O)c2cc3cccc(F)c3s2)c1` [Example 297], for which the pEC50 is less than 5.00.
With `CS(=O)(=O)Nc1cc(Cl)cc(NC(=O)c2cc(-c3ncccc3NC(=O)C3CC3)cs2)c1` [Example 220], the pEC50 is 6.52.
The same measure, in the same setting: next, `CS(=O)(=O)Nc1cc(Cl)cc(NC(=O)c2cc(-c3ccccc3)c[nH]2)c1` [Example 8]: 5.26; `CS(=O)(=O)Nc1cc(I)cc(NC(=O)c2cc(-c3ccccc3)cs2)c1` [Example 16]: 5.45.
Still for that read-out and setting: next, `CS(=O)(=O)Nc1cc(Cl)cc(NC(=O)c2cc(-c3ncccc3Cc3ncccn3)cs2)c1` [Example 384]: 6.91; `CCS(=O)(=O)Nc1cc(Cl)cc(NC(=O)c2cc(C)n(-c3ccc(N4CCOCC4)cn3)c2)c1` [Example 249]: 7.53; `CS(=O)(=O)Nc1cc(F)cc(NC(=O)c2cc(-c3ccccn3)cs2)c1` [Example 112, N-(3-fluoro-5-(methylsulfonamido)phenyl)-4-(pyridin-2-yl)thiophene-2-carboxamide]: 6.20.
Take `CS(=O)(=O)Nc1cc(Cl)cc(NC(=O)c2cnn(C3CC4CCC(C3)O4)c2)c1` (stereo not drawn) [Example 250]: the pEC50 is 5.45.
Still for that read-out and setting: next, `CS(=O)(=O)Nc1cc(Cl)cc(NC(=O)c2cc(-c3ccccc3)n(CC(F)(F)F)c2)c1` [Example 80]: 5.51; `CS(=O)(=O)Nc1cc(F)cc(NC(=O)c2cc(-c3ccccc3)cs2)c1` [Example 73]: 4.95.
On the same count and under the same terms, the same measure for `CS(=O)(=O)Nc1cc(Cl)cc(NC(=O)c2cnn(-c3ncccc3S(C)(=O)=O)c2)c1` [Example 199]: less than 5.00.
In the case of `CS(=O)(=O)Nc1cc(Cl)cc(NC(=O)c2cc(C(F)(F)F)n(-c3ccc(N4CCOCC4)cn3)c2)c1` [Example 271], the pEC50 was 6.12.
Still for that read-out and setting: next, `Cc1cc(C(=O)Nc2cc(Cl)cc(NS(=O)(=O)C(F)F)c2)cn1-c1ccc(N2CCOCC2)cn1` [Example 248]: less than 5.00; `CS(=O)(=O)Nc1cc(Cl)cc(NC(=O)c2cnn(-c3ccccc3Oc3cccnc3)c2)c1` [Example 264]: 5.45.
The same measure, in the same setting: next, `CS(=O)(=O)Nc1cc(Cl)cc(NC(=O)c2cnn(CCc3ccccc3)c2)c1` [Example 308]: less than 5.00; `CS(=O)(=O)Nc1cc(Cl)cc(NC(=O)c2cc3c(C(F)(F)F)cccc3s2)c1` [Example 323]: less than 5.00; `CS(=O)(=O)Nc1cc(Cl)cc(NC(=O)c2cc3c(F)ccc(F)c3s2)c1` [Example 325]: 5.22.
The same measure, in the same setting: the same measure for `CS(=O)(=O)Nc1cc(Cl)cc(NC(=O)c2cnn(C3CCNCC3)c2)c1` [Example 145, N-(3-chloro-5-(methylsulfonamido)phenyl)-1-(piperidin-4-yl)-1H-pyrazole-4-carboxamide]: less than 5.00; for `CS(=O)(=O)Nc1cc(Cl)cc(NC(=O)c2cnn(-c3ncccc3OCc3ccncc3)c2)c1` [Example 64]: 5.25.
As for `CS(=O)(=O)Nc1cc(Cl)cc(NC(=O)c2cc(-c3ccccc3O)cs2)c1` [Example 106], the negative logarithm of the EC50 (pEC50) was 6.38.
In the case of `CN(C)C(=O)c1cccnc1-c1csc(C(=O)Nc2cc(Cl)cc(NS(C)(=O)=O)c2)c1` [Example 222], the pEC50 is 6.70.
Still for that read-out and setting: the same measure for `Cc1cnc(-n2cc(C(=O)Nc3cc(Cl)cc(NS(C)(=O)=O)c3)cn2)c(OCc2cnco2)c1` [Example 261]: 5.82; for `CCS(=O)(=O)Nc1cc(F)cc(NC(=O)c2cc(-c3ccccn3)cs2)c1` [Example 113]: 5.13.
For the compound `CS(=O)(=O)Nc1cc(Cl)cc(NC(=O)c2cccc(-n3cccn3)c2)c1` [Example 117], the pEC50 is 5.41.
`Cc1cc(C(=O)Nc2cc(F)cc(NS(C)(=O)=O)c2)c[nH]1` [Example 5]: the pEC50 is less than 4.52.
On the same count and under the same terms, next, `CS(=O)(=O)Nc1cc(Cl)cc(NC(=O)c2cnn(-c3ccccc3-c3cncc(F)c3)c2)c1` [Example 257]: 5.58.
The same measure, in the same setting: next, `CS(=O)(=O)Nc1cc(Cl)cc(NC(=O)c2cnn([C@H]3CCC[C@H](O)C3)c2)c1` (single isomer, unassigned) [Example 152a]: less than 5.00.
For the compound `Cc1cc(C(=O)Nc2cc(Br)cc(NS(C)(=O)=O)c2)cn1C1CCCCC1` [Example 85, N-(3-bromo-5-(methylsulfonamido)phenyl)-1-cyclohexyl-5-methyl-1H-pyrrole-3-carboxamide], the pEC50 is 5.56.
On the same count and under the same terms, next, `CS(=O)(=O)Nc1cc(Br)cc(NC(=O)c2cnn(-c3ncccc3N)c2)c1` [Example 162, 1-(3-aminopyridin-2-yl)-N-(3-bromo-5-(methylsulfonamido)phenyl)-1H-pyrazole-4-carboxamide]: 6.86.

Staying with this experiment, now noted: Homo sapiens, HCT-116, circBRIP1, HCT116 cells; ^+ SyBr assay was used; read-out: DHX9 Cellular Target Engagement EC50.
In the case of `Cn1cc(C(=O)Nc2cc(Cl)cc(NS(C)(=O)=O)c2)cc1-c1ccc(C(F)(F)F)cn1` [Example 569], the negative logarithm of the EC50 (pEC50) is 6.84.
Still for that read-out and setting: next, `Cc1sc(C(=O)Nc2cc(Cl)cc(NS(C)(=O)=O)c2)cc1-c1nccn1CCc1ccccc1` [Example 698]: 5.60; `CS(=O)(=O)Nc1cc(Cl)cc(NC(=O)c2cnn(-c3ncccc3Oc3cccc(F)c3)c2)c1` [Example 427]: 6.52; `Cc1sc(C(=O)Nc2cc(Cl)cc(NS(C)(=O)=O)c2)cc1-n1cc(F)cn1` [Example 439]: 6.70.
Same read-out and setting: next, `Cc1cc(C(=O)Nc2cc(Cl)cc(NS(C)(=O)=O)c2)cn1-c1ncc(N2CCOCC2)cc1F` [Example 412]: 7.02; `Cn1cc(C(=O)Nc2cc(Cl)cc(NS(C)(=O)=O)c2)cc1-c1ncc(Cl)cn1` [Example 577]: 6.82.
Turning to `Cc1sc(C(=O)Nc2cc(Cl)cc(NS(C)(=O)=O)c2)cc1N1CCCC1=O` [Example 434], the negative logarithm of the EC50 (pEC50) was 5.63.
On to `Cn1cc(C(=O)Nc2cc(Cl)cc(NS(C)(=O)=O)c2)cc1-c1ccc(F)cn1` [Example 575], for which the negative logarithm of the EC50 (pEC50) is 6.67.
On the same count and under the same terms, the same measure for `Cc1sc(C(=O)Nc2cc(Cl)cc(NS(C)(=O)=O)c2)cc1-c1ncc(F)cc1-c1cnco1` [Example 705]: 6.17; for `Cn1cc(C(=O)Nc2cc(Cl)cc(NS(C)(=O)=O)c2)cc1-c1ccc(C#N)cn1` [Example 570]: 6.65.
Still for that read-out and setting: next, `CS(=O)(=O)Nc1cc(Cl)cc(NC(=O)c2cc(C(=O)N3CCN(c4ccccc4)CC3)n(-c3ccccn3)c2)c1` [Example 654]: 5.27; `CC(C)(O)c1cc(C(=O)Nc2cc(Cl)cc(NS(C)(=O)=O)c2)cn1-c1ccccn1` [Example 650]: 6.07.
On the same count and under the same terms, the same measure for `CN1CCN(C(=O)c2cc(C(=O)Nc3cc(Cl)cc(NS(C)(=O)=O)c3)cn2-c2ccccn2)CC1` [Example 665]: 5.30.
